Results: patent publication US20220088146A1, “Melanocortin Receptor-Specific Peptide Formulations and Methods for Gastrointestinal Tract-Specific Delivery” (Palatin Technologies, Inc., priority 2018, published 2022)

Experiments:
[1] = Plasma assay for systemic peptide in DNBS colitis rats after oral capsules; type: in vivo, rat; conditions: oral capsules of Lot 41
MC2r = biological target: T1, MC2r (Homo sapiens, UniProt Q01718); experiment: Functional selectivity evaluation at Cerep, MC2r; type: cell-based
T1 construct: Cerep
Description: The results were as follows:

MC3r = biological target: T2, MC3r (Homo sapiens, UniProt P41968); experiment: Functional selectivity evaluation at Cerep, MC3r; type: cell-based
T2 construct: Cerep

MC5r = biological target: T3, MC5r (Homo sapiens, UniProt P33032); experiment: Functional selectivity evaluation at Cerep, MC5r; type: cell-based
T3 construct: Cerep

72 in vitro assays = experiment: Eurofins lead profile; conditions: 10 μM
TNF-α = experiment: Lipopolysaccharide-induced TNF-α inhibition in vitro; type: cell-based
[2] = system: DNBS-induced bowel inflammation; experiment: Cannulated rat DNBS model of bowel inflammation, intracolonic dosing; type: in vivo; conditions: 0.5 μg and 5.0 μg intracolonic, Wistar rats
Experimental: The rats were implanted with a catheter in the proximal part of the ascending colon, which exited out the nape of the neck for dosing access. […] Non-cannulated control rats were administered sulfasalazine (positive controls) and vehicle (untreated controls).

MC1r = experiment: Functional selectivity evaluation at Cerep, MC1r; type: cell-based
MC4r [3] = biological target: T4, MC4r (Homo sapiens, UniProt P32245); experiment: Competitive inhibition binding assay using [I125]-NDP-α-MSH, hMC4r membranes; set-up: expressed in transfected cells; host or cells: HEK-293; conditions: human recombinant MC4r, HEK-293 membranes, read-out: MC-4 Ki (average)
Experimental: A competitive inhibition binding assay was performed using membrane homogenates prepared from HEK-293 cells that express recombinant hMC1r or hMC4r (in each instance where the h prefix refers to human), or alternatively membrane homogenates from B16-F10 mouse melanoma cells containing endogenous murine MC1r. In the examples that follow, all MC1r and MC4r values are for human recombinant receptors, unless otherwise noted. Assays were performed in 96 well polypropylene round-bottom plates (VWR catalog number 12777-030). […] After incubation for 90 minutes at 37° C., the assay mixture was filtered onto GF/B Unifilter plates (Perkin-Elmer catalog number 6005177) and washed with 3 mL of ice-cold buffer per well. Filters were air dried and 35 μL of scintillation cocktail added to each well. Plates were counted in a Microbeta counter for bound radioactivity. […] Each assay was conducted in duplicate and the actual mean values are described, with results less than 0% reported as 0%. Ki values for peptides of the present invention were determined using Graph-Pad Prism® curve-fitting software.
All results are expressed in nM except for Emax values, which are percentage values. Peptides with the captioned primary sequence were synthesized and purified as described in Section 7 above, with the resulting peptide having the structure depicted.

MC4r [4] = biological target: T4, MC4r; experiment: cell-based
hMC1r = hMC1r (Homo sapiens, UniProt Q01726); experiment: Assay for agonist activity: cAMP accumulation in HBL melanoma cells; type: cell-based; set-up: endogenous in cells; host or cells: HBL human melanoma cells; conditions: HBL, compared to NDP-α-MSH as 100%, read-out: MC-1 Emax (average; cAMP HBL)
[5] = Dissolution of Eudragit microparticles, USP Apparatus 2; type: physicochemical; conditions: Lot 40 microparticles (FIG. 8)
Experimental: About 1 g of the microparticles was accurately weighed and suspended in the acid at 37° C. for 2 hours. The pH of the medium was then sequentially adjusted to pH 5.5 for 1 hour, pH 6.8 for another hour and finally to pH 7.4 for 7 hours.

[6] = Human clinical microdose study of C14-labeled oral formulation; type: in vivo; conditions: single oral microdose of C14-labeled Example 9.3 formulated as for Lot 41
Description: A combination of Eudragit® L100-55, Eudragit® S-100 and Eudragit® FS30D polymethacrylates were selected and utilized at a weight ratio of 23.25:23.0:12.5, where the weight of L100-55 and S-100 was dry weight of solid material, and the weight of FS30D was of a commercially prepared aqueous formulation wherein the 12.5 grams of liquid FS30D contained 3.75 grams polymer, for a weight ratio of polymer of 23.25:23:3.75. The combination of polymethacrylates were placed in acetone and stirred for an extended period. […] The dried material was retrieved, diluted with additional dried polymetacrylate mixture not containing peptide to obtain the desired target concentration in a predetermined quantity of material, and milled to the desired diameter and sieved. The sieved material was placed within a gelatin size 2 capsule to provide an oral formulation.
The oral formulation was administered in a microdose level to 24 subjects, divided into six cohorts of 4 subjects each.
The only radioactive material identified in urine was the C14 labelled phenylalanine.

T4 sequence (P32245 whole entry): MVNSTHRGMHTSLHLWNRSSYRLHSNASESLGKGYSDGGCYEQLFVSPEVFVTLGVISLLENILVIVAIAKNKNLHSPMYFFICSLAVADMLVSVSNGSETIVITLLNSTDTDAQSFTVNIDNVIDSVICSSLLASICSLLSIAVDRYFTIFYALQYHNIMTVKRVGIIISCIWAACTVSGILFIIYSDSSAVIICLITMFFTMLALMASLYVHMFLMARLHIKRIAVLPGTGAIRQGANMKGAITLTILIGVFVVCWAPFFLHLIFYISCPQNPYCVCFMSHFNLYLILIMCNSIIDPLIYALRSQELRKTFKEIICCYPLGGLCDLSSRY
T2 sequence (P41968 whole entry, species assumed): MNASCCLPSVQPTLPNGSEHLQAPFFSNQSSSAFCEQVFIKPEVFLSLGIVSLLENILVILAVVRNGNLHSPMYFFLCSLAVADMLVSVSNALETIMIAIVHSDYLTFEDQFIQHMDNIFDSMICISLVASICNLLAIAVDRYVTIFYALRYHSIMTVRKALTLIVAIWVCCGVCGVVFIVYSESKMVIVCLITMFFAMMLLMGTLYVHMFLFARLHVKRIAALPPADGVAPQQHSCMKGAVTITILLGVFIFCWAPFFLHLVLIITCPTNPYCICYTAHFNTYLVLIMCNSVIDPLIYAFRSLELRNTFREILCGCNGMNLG
hMC1r, sequence (Q01726 whole entry): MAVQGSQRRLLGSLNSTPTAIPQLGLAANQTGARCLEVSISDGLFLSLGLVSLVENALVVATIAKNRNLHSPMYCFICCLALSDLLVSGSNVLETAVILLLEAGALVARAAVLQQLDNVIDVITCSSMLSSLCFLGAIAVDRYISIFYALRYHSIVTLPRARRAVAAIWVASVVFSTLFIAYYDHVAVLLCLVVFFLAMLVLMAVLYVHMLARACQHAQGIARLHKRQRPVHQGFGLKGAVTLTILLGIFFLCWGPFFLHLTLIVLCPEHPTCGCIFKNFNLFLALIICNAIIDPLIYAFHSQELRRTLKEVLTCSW
T3 sequence (P33032 whole entry, species assumed): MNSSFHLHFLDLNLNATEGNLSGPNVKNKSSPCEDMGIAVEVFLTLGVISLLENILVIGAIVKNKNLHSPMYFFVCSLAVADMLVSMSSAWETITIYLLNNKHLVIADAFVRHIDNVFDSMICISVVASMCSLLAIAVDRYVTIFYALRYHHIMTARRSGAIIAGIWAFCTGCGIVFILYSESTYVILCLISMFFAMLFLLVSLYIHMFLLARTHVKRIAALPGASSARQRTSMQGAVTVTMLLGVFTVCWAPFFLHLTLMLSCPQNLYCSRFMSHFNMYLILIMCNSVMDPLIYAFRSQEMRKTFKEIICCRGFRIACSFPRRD
T1 sequence (Q01718 whole entry, species assumed): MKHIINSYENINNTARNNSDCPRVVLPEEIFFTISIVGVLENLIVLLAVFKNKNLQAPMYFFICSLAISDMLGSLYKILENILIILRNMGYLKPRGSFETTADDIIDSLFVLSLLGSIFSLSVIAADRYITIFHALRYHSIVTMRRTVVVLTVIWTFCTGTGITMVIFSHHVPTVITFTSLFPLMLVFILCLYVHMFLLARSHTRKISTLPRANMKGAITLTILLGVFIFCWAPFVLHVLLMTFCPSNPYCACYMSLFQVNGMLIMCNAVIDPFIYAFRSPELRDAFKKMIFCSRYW
T1 sequence (Q8TCY5 whole entry partner, species assumed): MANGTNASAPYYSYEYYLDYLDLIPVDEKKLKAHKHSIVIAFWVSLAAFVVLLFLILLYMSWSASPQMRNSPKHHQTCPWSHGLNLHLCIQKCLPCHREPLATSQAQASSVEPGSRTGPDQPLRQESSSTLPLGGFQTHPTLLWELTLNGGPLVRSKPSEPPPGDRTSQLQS

In the case of `CCCC[C@H](NC(C)=O)C(=O)N[C@H]1CCC(=O)NC[C@@H](C(=O)N[C@@H](Cc2c[nH]c3ccccc23)C(N)=O)NC(=O)[C@H](CCCNC(=N)N)NC(=O)[C@@H](Cc2ccccc2)NC(=O)[C@H](Cc2c[nH]cn2)NC1=O` [Example 9.3, Ac-Nle-cyclo(Glu-His-D-Phe-Arg-Dap)-Trp-NH2], the “systemic peptide in plasma” value [1] is reported as “did not detect any”, the EC50 (MC2r) is reported as over 10 µM and the EC50 (MC3r) is reported as over 10 µM. The EC50 (MC5r) was over 10 µM, the “activity in 72 in vitro assays (Eurofins lead profile)” value (72 in vitro assays) was “no activity was detected” and the “lipopolysaccharide-induced TNF-α inhibition” value (TNF-α) was “comparable to α-MSH and ACTH”. The inflammation score ([2]; FIG. 1A) was “as active as sulfasalazine”, the colon weight ([2]; FIG. 1B) was “as active as sulfasalazine” and the EC50 (MC1r) was 0.00057 µM. For the same molecule, the Ki (MC4r [3]) was 0.51 µM, the EC50 (MC4r [4]) was 0.51 µM and the Emax (hMC1r) was 91%. For the same molecule, the “peptide release from microparticles” value ([5]; buffer pH 4.5-5.5) was “no release”, the “peptide release from microparticles” value ([5]; buffer pH adjusted over time 4.5-7.5) was “approximately total release” and the “intact peptide in plasma or urine” value [6] was “no intact peptide”. The “peptide levels in fecal samples” value [6] was “significant and approximately equal levels”.
